Test results taken from patent publication US11759442B2, “Use of short chain fatty acids for the treatment and prevention of diseases and disorders” (Temple University-Of The Commonwealth System of Higher …, priority 2017, dated 2023).

Experiments:
GPR-109a receptor = GPR-109a receptor (Homo sapiens, UniProt Q8TDS4); conditions: read-out: EC50 of GPR-109a receptor activation; cited from earlier work
IL-6 = conditions: cited from earlier work
[1] = system: ileum inflammatory cytokines; conditions: neonatal piglets, oral ~10 ml of 150 mmol/L; cited from earlier work

GPR-109a receptor, sequence (Q8TDS4 whole entry): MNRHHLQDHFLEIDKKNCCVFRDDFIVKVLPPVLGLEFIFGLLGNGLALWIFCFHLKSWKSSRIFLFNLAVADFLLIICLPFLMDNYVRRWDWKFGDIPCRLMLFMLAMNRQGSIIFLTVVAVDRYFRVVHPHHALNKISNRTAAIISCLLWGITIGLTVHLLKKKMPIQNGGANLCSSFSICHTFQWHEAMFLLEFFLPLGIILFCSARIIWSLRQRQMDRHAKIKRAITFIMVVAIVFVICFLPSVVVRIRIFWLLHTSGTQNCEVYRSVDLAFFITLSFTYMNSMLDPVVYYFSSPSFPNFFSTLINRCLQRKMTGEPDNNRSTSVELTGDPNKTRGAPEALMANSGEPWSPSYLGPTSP

CCCC(=O)O [butyrate]
EC50 (GPR-109a receptor): ~1500 µM | re-emergence of psoriasis on left elbow after ceasing the regimen (psoriasis skin lesions; FIG. 2 patient, one 600 mg pill 3 times daily for 16 days, then stopped): 20 days | time until psoriasis came back after stopping the regimen (psoriasis skin lesions; FIG. 5 fourth patient): 20 to 25 days | side effects during treatment (psoriasis skin lesions; FIG. 5 fourth patient, treatment for long period of time): no side effects were noted

CCC(=O)O [propionate]
effect on IL-6 (IL-6): inhibit IL-6

CCCC(=O)[O-].[Na+] [sodium butyrate]
effect on ileum inflammatory cytokines [1]: modulated the ileum inflammatory cytokines
